# Reference: patent publication US7396837B2, “Antitumoral analogs of lamellarins” (Pharma Mar, S.A.U., priority 2002, dated 2008)
# How the values were obtained:
# Type in all cases: cell-based
# LoVo = experiment: SRB colorimetric cell growth inhibition assay, LoVo; conditions: Homo sapiens, LoVo; for GI50: GI=growth inhibition, read-out: GI50 LOVO; for CC50: cell killing (cytotoxic effect), read-out: LC50 LOVO; for IC (TGI): total growth inhibition (cytostatic effect), read-out: TGI LOVO
# How it was run: (§1)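 Human tumour cells continuously exposed to compound in 96-well culture; growth and viability quantified colorimetrically by sulforhodamine B staining. Mean ± SD from triplicate wells; GI (growth inhibition), TGI (total growth inhibition, cytostatic) and LC (cell killing, cytotoxic) parameters derived.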
# LoVo-Dox = experiment: SRB colorimetric cell growth inhibition assay, LoVo-Dox (MDR); conditions: Homo sapiens, LOVO-DOX; for GI50: GI=growth inhibition, read-out: GI50 LOVO-DOX; for CC50: cell killing (cytotoxic effect), read-out: LC50 LOVO-DOX; for IC (TGI): total growth inhibition (cytostatic effect), read-out: TGI LOVO-DOX
# How it was run: as §1
# PANC-1 = experiment: SRB colorimetric cell growth inhibition assay, PANC-1; conditions: Homo sapiens, PANC-1, PANC-1; for GI50: GI=growth inhibition, read-out: GI50 PANC-1; for CC50: cell killing (cytotoxic effect), read-out: LC50 PANC-1; for IC (TGI): total growth inhibition (cytostatic effect), read-out: TGI PANC-1
# How it was run: as §1
# SK-MEL-28 = experiment: SRB colorimetric cell growth inhibition assay, SK-MEL-28; conditions: Homo sapiens, SK-MEL-28, MEL-28; for GI50: GI=growth inhibition, read-out: GI50 MEL-28; for CC50: cell killing (cytotoxic effect), read-out: LC50 MEL-28; for IC (TGI): total growth inhibition (cytostatic effect), read-out: TGI MEL-28
# How it was run: as §1
# K-562 = experiment: SRB colorimetric cell growth inhibition assay, K-562; conditions: Homo sapiens, K562, K-562; for GI50: GI=growth inhibition, read-out: GI50 K-562; for CC50: cell killing (cytotoxic effect), read-out: LC50 K-562; for IC (TGI): total growth inhibition (cytostatic effect), read-out: TGI K-562
# How it was run: as §1
# LNCaP = experiment: SRB colorimetric cell growth inhibition assay, LNCaP; conditions: Homo sapiens, LNCaP, LN-caP; for GI50: GI=growth inhibition, read-out: GI50 LN-caP; for CC50: cell killing (cytotoxic effect), read-out: LC50 LN-caP; for IC (TGI): total growth inhibition (cytostatic effect), read-out: TGI LN-caP
# How it was run: as §1
# HT-29 = experiment: SRB colorimetric cell growth inhibition assay, HT-29; conditions: Homo sapiens, HT-29, HT-29; for GI50: GI=growth inhibition, read-out: GI50 HT-29; for CC50: cell killing (cytotoxic effect), read-out: LC50 HT-29; for IC (TGI): total growth inhibition (cytostatic effect), read-out: TGI HT-29
# How it was run: as §1
# IGROV-ET = experiment: SRB colorimetric cell growth inhibition assay, IGROV-ET (ET-743 resistant); conditions: Homo sapiens, IGROV-ET; for GI50: GI=growth inhibition, read-out: GI50 IGROV-ET; for CC50: cell killing (cytotoxic effect), read-out: LC50 IGROV-ET; for IC (TGI): total growth inhibition (cytostatic effect), read-out: TGI IGROV-ET
# How it was run: as §1
# DU-145 = experiment: SRB colorimetric cell growth inhibition assay, DU-145; conditions: Homo sapiens, DU-145, DU-145; for GI50: GI=growth inhibition, read-out: GI50 DU-145; for CC50: cell killing (cytotoxic effect), read-out: LC50 DU-145; for IC (TGI): total growth inhibition (cytostatic effect), read-out: TGI DU-145
# How it was run: as §1
# IGROV = experiment: SRB colorimetric cell growth inhibition assay, IGROV; conditions: Homo sapiens, IGROV; for GI50: GI=growth inhibition, read-out: GI50 IGROV; for CC50: cell killing (cytotoxic effect), read-out: LC50 IGROV; for IC (TGI): total growth inhibition (cytostatic effect), read-out: TGI IGROV
# How it was run: as §1
# A-549 = experiment: SRB colorimetric cell growth inhibition assay, A-549; conditions: Homo sapiens, A549, A-549; for GI50: GI=growth inhibition, read-out: GI50 A-549; for CC50: cell killing (cytotoxic effect), read-out: LC50 A-549; for IC (TGI): total growth inhibition (cytostatic effect), read-out: TGI A-549
# How it was run: as §1
# HeLa-APL = experiment: SRB colorimetric cell growth inhibition assay, HeLa-APL (aplidine resistant); conditions: Homo sapiens, HELA-APL; for GI50: GI=growth inhibition, read-out: GI50 HELA-APL; for CC50: cell killing (cytotoxic effect), read-out: LC50 HELA-APL; for IC (TGI): total growth inhibition (cytostatic effect), read-out: TGI HELA-APL
# How it was run: as §1
# SK-BR-3 = experiment: SRB colorimetric cell growth inhibition assay, SK-BR-3; conditions: Homo sapiens, SK-BR-3, SK-BR-3; for GI50: GI=growth inhibition, read-out: GI50 SK-BR-3; for CC50: cell killing (cytotoxic effect), read-out: LC50 SK-BR-3; for IC (TGI): total growth inhibition (cytostatic effect), read-out: TGI SK-BR-3
# How it was run: as §1
# HeLa = experiment: SRB colorimetric cell growth inhibition assay, HeLa; conditions: Homo sapiens, HeLa; for GI50: GI=growth inhibition, read-out: GI50 HELA; for CC50: cell killing (cytotoxic effect), read-out: LC50 HELA; for IC (TGI): total growth inhibition (cytostatic effect), read-out: TGI HELA
# How it was run: as §1
smiles,measurement,setting,value
COc1cc(-c2c3c4cc(OC)c(OC(=O)[C@@H](N)C(C)C)cc4oc(=O)c3n3ccc4cc(OC(=O)[C@@H](N)C(C)C)c(OC)cc4c23)ccc1OC(=O)[C@@H](N)C(C)C [Compound 195],GI50,LoVo,0.15 µM
same,CC50,LoVo,0.783 µM
same,IC (TGI),LoVo,0.342 µM
same,GI50,LoVo-Dox,0.106 µM
same,CC50,LoVo-Dox,2.5 µM
same,IC (TGI),LoVo-Dox,0.5 µM
same,GI50,PANC-1,0.0569 µM
same,CC50,PANC-1,3.11 µM
same,IC (TGI),PANC-1,0.363 µM
same,GI50,SK-MEL-28,0.0441 µM
same,CC50,SK-MEL-28,1.94 µM
same,IC (TGI),SK-MEL-28,0.159 µM
same,GI50,K-562,0.0117 µM
same,CC50,K-562,0.17 µM
same,IC (TGI),K-562,0.0409 µM
same,GI50,LNCaP,0.0221 µM
same,CC50,LNCaP,0.365 µM
same,IC (TGI),LNCaP,0.0864 µM
same,GI50,HT-29,2.15 µM
same,CC50,HT-29,8.62 µM
same,IC (TGI),HT-29,4.31 µM
same,GI50,IGROV-ET,0.0417 µM
same,CC50,IGROV-ET,2.74 µM
same,IC (TGI),IGROV-ET,0.215 µM
same,GI50,DU-145,0.0137 µM
same,CC50,DU-145,0.0585 µM
same,IC (TGI),DU-145,0.0284 µM
same,GI50,IGROV,0.025 µM
same,CC50,IGROV,0.855 µM
same,IC (TGI),IGROV,0.145 µM
same,GI50,A-549,0.113 µM
same,CC50,A-549,11 µM
same,IC (TGI),A-549,1.15 µM
same,GI50,HeLa-APL,0.0876 µM
same,CC50,HeLa-APL,0.536 µM
same,IC (TGI),HeLa-APL,0.234 µM
same,GI50,SK-BR-3,0.0455 µM
same,CC50,SK-BR-3,0.84 µM
same,IC (TGI),SK-BR-3,0.0898 µM
same,GI50,HeLa,0.0513 µM
same,CC50,HeLa,0.633 µM
same,IC (TGI),HeLa,0.204 µM
COc1cc2c(cc1O)CCn1c-2cc2c3cc(OC)c(O)cc3oc(=O)c21 [Compound 196],GI50,LoVo,0.799 µM
same,CC50,LoVo,26.4 µM
same,IC (TGI),LoVo,3.53 µM
same,GI50,LoVo-Dox,0.517 µM
same,CC50,LoVo-Dox,26.4 µM
same,IC (TGI),LoVo-Dox,26.4 µM
same,GI50,PANC-1,0.957 µM
same,CC50,PANC-1,26.4 µM
same,IC (TGI),PANC-1,7.25 µM
same,GI50,SK-MEL-28,0.675 µM
same,CC50,SK-MEL-28,26.4 µM
same,IC (TGI),SK-MEL-28,8.99 µM
same,GI50,K-562,0.234 µM
same,CC50,K-562,1.5 µM
same,IC (TGI),K-562,0.614 µM
same,GI50,LNCaP,0.398 µM
same,CC50,LNCaP,9.78 µM
same,IC (TGI),LNCaP,1.45 µM
same,GI50,HT-29,8.46 µM
same,CC50,HT-29,26.4 µM
same,IC (TGI),HT-29,26.4 µM
same,GI50,IGROV-ET,0.849 µM
same,CC50,IGROV-ET,26.4 µM
same,IC (TGI),IGROV-ET,3.85 µM
same,GI50,DU-145,0.414 µM
same,CC50,DU-145,11.2 µM
same,IC (TGI),DU-145,1.65 µM
same,GI50,IGROV,0.691 µM
same,CC50,IGROV,16.5 µM
same,IC (TGI),IGROV,2.49 µM
same,GI50,A-549,1.68 µM
same,CC50,A-549,26.4 µM
same,IC (TGI),A-549,26.4 µM
same,GI50,HeLa-APL,0.117 µM
same,CC50,HeLa-APL,1.92 µM
same,IC (TGI),HeLa-APL,0.511 µM
same,GI50,SK-BR-3,0.654 µM
same,CC50,SK-BR-3,26.4 µM
same,IC (TGI),SK-BR-3,1.65 µM
same,GI50,HeLa,0.351 µM
same,CC50,HeLa,26.4 µM
same,IC (TGI),HeLa,1.93 µM
